Read-outs that look alike come from different tables or passages of the source. Each block holds one molecule with its values, some of them ahead of it.
Experiments:
[1] = biological target: recombinant human His-tagged MDM2 protein (residues 1-118) (Homo sapiens (Human), UniProt Q00987); assay: Fluorescence-polarization MDM2 binding assay (Example 2); details: Table 2A; no unit in the cell (μM unless otherwise indicated)
PC-3 (deleted p53) = assay: Cell growth assay (WST-8); assay type: cell-based; details: read-out: IC50 PC-3 (deleted p53)
LNCAP (p53 wild-type) = assay: Cell growth assay (WST-8); assay type: cell-based, human
SJSA-1 (p53 wild-type) = assay: Cell growth assay (WST-8); assay type: cell-based
HCT-116 (p53—/—) = assay: Cell growth assay (WST-8); assay type: cell-based
HCT-116 (p53 wild-type) = assay: Cell growth assay (WST-8); assay type: cell-based, human
[2] = Homo sapiens, LNCaP; read-out: IC50 LNCAP (p53 wild-type)
[3] = Homo sapiens, SJSA-1; read-out: IC50 SJSA-1 (p53 wild-type)
[4] = Homo sapiens, HCT-116, read-out: IC50 HCT-116 (p53—/—)
[5] = Homo sapiens, LNCaP, read-out: IC50 LNCAP (p53 wild-type)
[6] = Homo sapiens, HCT-116, read-out: IC50 HCT-116 (p53 wild-type)

recombinant human His-tagged MDM2 protein (residues 1-118), sequence (Q00987 1-118): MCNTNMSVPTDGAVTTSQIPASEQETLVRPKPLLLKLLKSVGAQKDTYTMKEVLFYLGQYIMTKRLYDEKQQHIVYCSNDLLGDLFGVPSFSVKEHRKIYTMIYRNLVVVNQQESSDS

Compound: CC(C)(C)C[C@@H]1N[C@@H](C(=O)N[C@H]2C[C@@](C)(O)C2)[C@H](c2cccc(Cl)c2F)[C@]12C(=O)Nc1c2ccc(Cl)c1F
IC50 [1]: < 0.1 µM | IC50 (PC-3 (deleted p53)): 10.1 µM | IC50 (LNCAP (p53 wild-type); [2]): 0.3 µM | IC50 (SJSA-1 (p53 wild-type); [3]): 0.2 µM

Compound: CC(C)(C)C[C@@H]1N[C@@H](C(=O)NC2CCC(C)(O)CC2)[C@H](c2cccc(Cl)c2F)[C@]12C(=O)Nc1cc(Cl)ccc12 (stereo partly shown)
IC50 (HCT-116 (p53—/—); [4]): 10.6 µM | IC50 (PC-3 (deleted p53)): 11.1 µM | IC50 (LNCAP (p53 wild-type); [5]): 0.2 µM | IC50 (SJSA-1 (p53 wild-type); Homo sapiens, SJSA-1, read-out: IC50 SJSA-1 (p53 wild-type)): 0.1 µM | IC50 (HCT-116 (p53 wild-type); [6]): 0.1 µM

Compound: CC(C)(C)C[C@H]1N[C@@H](C(=O)N[C@H]2C[C@@](C)(O)C2)[C@H](c2cccc(Cl)c2)[C@@]12C(=O)Nc1cc(F)c(F)cc12 [C035]
IC50 [1]: < 3 µM | IC50 (HCT-116 (p53—/—); Homo sapiens, HCT-116; read-out: IC50 HCT-116 (p53—/—)): > 10 µM | IC50 (PC-3 (deleted p53)): > 10 µM | IC50 (LNCAP (p53 wild-type); [2]): < 5 µM | IC50 (SJSA-1 (p53 wild-type); [3]): < 5 µM | IC50 (HCT-116 (p53 wild-type); Homo sapiens, HCT-116; read-out: IC50 HCT-116 (p53 wild-type)): < 5 µM

Compound: CC(C)(C)C[C@@H]1N[C@@H](C(=O)N[C@H]2C[C@@](C)(O)C2)[C@H](c2cc(Cl)ccc2F)[C@]12C(=O)Nc1cc(Cl)ccc12 [C11701]
IC50 (HCT-116 (p53—/—); [4]): 21.8 µM | IC50 (PC-3 (deleted p53)): 19.6 µM | IC50 (LNCAP (p53 wild-type); [5]): 1.5 µM | IC50 (HCT-116 (p53 wild-type); [6]): 1.4 µM

Results, then the molecule that gave them:

IC50 [1]: > 5 µM
Compound: O=C(NC1CCC(O)CC1)[C@@H]1N[C@@H](c2ccccc2)[C@@]2(C(=O)Nc3cc(Cl)ccc32)[C@H]1Cc1ccccc1 (single isomer, unassigned) [CB083-Isomer B]

IC50 [1]: > 5 µM
Compound: CC(C)(C)C[C@@H]1N[C@@H](C(=O)NC2CCC(O)CC2)[C@H](Cc2ccccc2)[C@]12C(=O)Nc1cc(Cl)ccc12 (single isomer, unassigned) [CB084-Isomer B]

IC50 [1]: < 0.5 µM
Compound: O=C(NC1CCC(O)CC1)[C@@H]1N[C@@H](c2ccccc2)[C@@]2(C(=O)Nc3cc(Cl)ccc32)[C@H]1c1cccc(Cl)c1F (single isomer, unassigned) [CB087-Isomer B]
